In general, IC50 refers to the midpoint of a concentration-inhibition curve. Low readings indicate inhibition by little substance, high ones a need for much substance. Broadly, the EC50 is the concentration that produces a half-maximal response. Read a low EC50 as an effect from little substance.

Assay [1] relates to MV4; 11 cells. The assay can be described thus: inhibiting the growth of MV4; 11 cells. Format: cell-based. The settings on record: Homo sapiens.
Assay [2] concerns the target T1, hClpP (Homo sapiens, UniProt Q16740).
T1 construct: made in house
The assay can be described thus: activating ClpP hydrolysis of FITC-casein (fluorescence kinetic detection). The conditions noted are these: hClpP 1 μM, FITC-Casein 4 μM, 37° C. Format: biochemical. As to the method:
The specific procedures were as follows:
Test compounds were each prepared into a 100 mM stock solution in DMSO and stored. and 1 μL of stock solution of each of the compounds was taken and diluted to 10 mM by adding 9 μL of DMSO for later use.
The compounds of formula I of the present invention were each diluted at concentrations of 200 μM, 50 μM, 10 μM, 2 μM, 500 nM, 100 nM, 20 nM, and 2 nM in an assay buffer. 50 μL of each of the compounds at different concentrations was added to each well, with 2 replicate wells.
The protein was diluted to 4 μM in an assay buffer. 25 μL of protein was added to each well, and incubated at 37° C. for 30 min. The final concentration was 1 μM.
25 μL of FITC-Casein was added to each well. The final concentration was 4 μM. The mixture was immediately loaded on the machine for detection.
FITC-Casein and FITC-Casein+ClpP were used as negative controls.
The detection temperature was 37° C. The plate was shaken for 3 s. […] Kinetic parameters were set, and scanning was performed once every 1 min for 15 min.

T1 sequence (Q16740 57-277): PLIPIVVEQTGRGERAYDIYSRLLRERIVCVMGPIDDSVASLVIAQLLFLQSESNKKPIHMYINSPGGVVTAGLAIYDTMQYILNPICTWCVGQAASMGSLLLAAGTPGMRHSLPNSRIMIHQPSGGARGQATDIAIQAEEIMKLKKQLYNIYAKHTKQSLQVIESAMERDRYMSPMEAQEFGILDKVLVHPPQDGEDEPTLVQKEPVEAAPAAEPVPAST

In assay [1], `O=c1c2c(c3cccnc3n1Cc1ccccc1)CCN(CC1CC1)C2` [Compound I-1, 6-benzyl-3-(cyclopropylmethyl)-2,3,4,6-tetrahydropyrido[3,4-c][1,8]naphthyridine-5-(1H)-one] showed an IC50 of 1 to 10 µM. In assay [2], this compound showed an EC50 of 10 to 100 µM.

In assay [1], `O=c1c2c(c3cccnc3n1Cc1ccccc1)CCN(CC1CCC1)C2` [Compound I-2, 6-benzyl-3-(cyclobutylmethyl)-2,3,4,6-tetrahydropyrido[3,4-c][1,8]naphthyridine-5-(1H)-one] showed an IC50 of 1 to 10 µM. This compound also returned a 50% effective concentration (EC50) in assay [2] of 10 to 100 µM.

Regarding `O=c1c2c(c3cccnc3n1Cc1ccccc1)CCN(CC1CCCC1)C2` [Compound I-3, 6-benzyl-3-(cyclopentylmethyl)-2,3,4,6-tetrahydropyrido[3,4-c][1,8]naphthyridine-5-(1H)-one], the IC50 in assay [1] was 1 to 10 µM. Also, in assay [2], the 50% effective concentration (EC50) fell in the range of 10 to 100 µM.

In turn, `O=c1c2c(c3cccnc3n1Cc1ccccc1)CCN(CC1CCCCC1)C2` [Compound I-4, 6-benzyl-3-(cyclohexylmethyl)-2,3,4,6-tetrahydropyrido[3,4-c][1,8]naphthyridine-5-(1H)-one] showed a half-maximal inhibitory concentration (IC50) in assay [1] of less than 1 µM. Also, the EC50 in assay [2] was in the range of 10 to 100 µM.

Take `O=c1c2c(c3cccnc3n1Cc1ccccc1)CCN(Cc1ccccc1)C2` [Compound I-5, 3,6-dibenzyl-2,3,4,6-tetrahydropyrido[3,4-c][1,8]naphthyridine-5-(1H)-one]: the concentration for half-maximal inhibition (IC50) in assay [1] was less than 1 µM. The same compound returned a 50% effective concentration (EC50) in assay [2] of 1 to 10 µM.

`O=c1c2c(c3cccnc3n1Cc1ccccc1)CCN(Cc1ccccc1F)C2` [Compound I-6, 6-benzyl-3-(2-fluorobenzyl)-2,3,4,6-tetrahydropyrido[3,4-c][1,8]naphthyridine-5-(1H)-one] had an IC50 in assay [1] of less than 1 µM. The EC50 in assay [2] was 1 to 10 µM.

In turn, `O=c1c2c(c3cccnc3n1Cc1ccccc1)CCN(Cc1ccccc1Cl)C2` [Compound I-7, 6-benzyl-3-(2-chlorobenzyl)-2,3,4,6-tetrahydropyrido[3,4-c][1,8]naphthyridine-5-(1H)-one] gave a 50% inhibitory concentration (IC50) in assay [1] of less than 1 µM. The compound further came in with a concentration giving a half-maximal response (EC50) in assay [2] of 1 to 10 µM.

The compound `O=c1c2c(c3cccnc3n1Cc1ccccc1)CCN(Cc1ccccc1Br)C2` [Compound I-8, 6-benzyl-3-(2-bromobenzyl)-2,3,4,6-tetrahydropyrido[3,4-c][1,8]naphthyridine-5-(1H)-one] gave a concentration for half-maximal inhibition (IC50) in assay [1] of less than 1 µM. The same compound returned an EC50 in assay [2] of 1 to 10 µM.

As to `Cc1ccccc1CN1CCc2c(c(=O)n(Cc3ccccc3)c3ncccc23)C1` [Compound I-9, 6-benzyl-3-(2-methylbenzyl)-2,3,4,6-tetrahydropyrido[3,4-c][1,8]naphthyridine-5-(1H)-one], the IC50 in assay [1] was less than 1 µM. The EC50 in assay [2] was in the range of 1 to 10 µM.

Consider `CCc1ccccc1CN1CCc2c(c(=O)n(Cc3ccccc3)c3ncccc23)C1` [Compound I-10, 6-benzyl-3-(2-ethylbenzyl)-2,3,4,6-tetrahydropyrido[3,4-c][1,8]naphthyridine-5-(1H)-one], for which, in assay [1], the IC50 was less than 1 µM. Moreover, in assay [2], the 50% effective concentration (EC50) lay within 1 to 10 µM.

For `COc1ccccc1CN1CCc2c(c(=O)n(Cc3ccccc3)c3ncccc23)C1` [Compound I-11, 6-benzyl-3-(2-methoxybenzyl)-2,3,4,6-tetrahydropyrido[3,4-c][1,8]naphthyridine-5-(1H)-one], the 50% inhibitory concentration (IC50) in assay [1] is less than 1 µM. The same compound returned an EC50 in assay [2] of 1 to 10 µM.

For `O=c1c2c(c3cccnc3n1Cc1ccccc1)CCN(Cc1cccc(F)c1)C2` [Compound I-12, 6-benzyl-3-(3-fluorobenzyl)-2,3,4,6-tetrahydropyrido[3,4-c][1,8]naphthyridine-5-(1H)-one], the 50% inhibitory concentration (IC50) in assay [1] is less than 1 µM. The half-maximal effective concentration (EC50) in assay [2] was less than 1 µM.

With `O=c1c2c(c3cccnc3n1Cc1ccccc1)CCN(Cc1cccc(Cl)c1)C2` [Compound I-13, 6-benzyl-3-(3-chlorobenzyl)-2,3,4,6-tetrahydropyrido[3,4-c][1,8]naphthyridine-5-(1H)-one], the IC50 in assay [1] was less than 1 µM. This compound gave an EC50 in assay [2] of less than 1 µM.

On to `O=c1c2c(c3cccnc3n1Cc1ccccc1)CCN(Cc1cccc(Br)c1)C2` [Compound I-14, 6-benzyl-3-(3-bromobenzyl)-2,3,4,6-tetrahydropyrido[3,4-c][1,8]naphthyridine-5-(1H)-one], for which the IC50 in assay [1] is less than 1 µM. In assay [2], this compound showed a half-maximal effective concentration (EC50) of less than 1 µM.

Turning to `Cc1cccc(CN2CCc3c(c(=O)n(Cc4ccccc4)c4ncccc34)C2)c1` [Compound I-15, 6-benzyl-3-(3-methylbenzyl)-2,3,4,6-tetrahydropyrido[3,4-c][1,8]naphthyridine-5-(1H)-one], in assay [1], the IC50 was less than 1 µM. In addition, the concentration giving a half-maximal response (EC50) in assay [2] is less than 1 µM.

Compound `CCc1cccc(CN2CCc3c(c(=O)n(Cc4ccccc4)c4ncccc34)C2)c1` [Compound I-16, 6-benzyl-3-(3-ethylbenzyl)-2,3,4,6-tetrahydropyrido[3,4-c][1,8]naphthyridine-5-(1H)-one] yielded an IC50 in assay [1] of less than 1 µM. Further, in assay [2], the EC50 lay within 1 to 10 µM.

In assay [1], `COc1cccc(CN2CCc3c(c(=O)n(Cc4ccccc4)c4ncccc34)C2)c1` [Compound I-17, 6-benzyl-3-(3-methoxybenzyl)-2,3,4,6-tetrahydropyrido[3,4-c][1,8]naphthyridine-5-(1H)-one] had an IC50 of less than 1 µM. The same compound came in with a 50% effective concentration (EC50) in assay [2] of 1 to 10 µM.

Regarding `O=c1c2c(c3cccnc3n1Cc1ccccc1)CCN(Cc1ccc(F)cc1)C2` [Compound I-18, 6-benzyl-3-(4-fluorobenzyl)-2,3,4,6-tetrahydropyrido[3,4-c][1,8]naphthyridine-5-(1H)-one], the IC50 in assay [1] was less than 1 µM. The same compound came in with a concentration giving a half-maximal response (EC50) in assay [2] of 1 to 10 µM.

The compound `O=c1c2c(c3cccnc3n1Cc1ccccc1)CCN(Cc1ccc(Cl)cc1)C2` [Compound I-19, 6-benzyl-3-(4-chlorobenzyl)-2,3,4,6-tetrahydropyrido[3,4-c][1,8]naphthyridine-5-(1H)-one] had an IC50 in assay [1] of less than 1 µM. Also, in assay [2], the EC50 lay within 1 to 10 µM.

With `O=c1c2c(c3cccnc3n1Cc1ccccc1)CCN(Cc1ccc(Br)cc1)C2` [Compound I-20, 6-benzyl-3-(4-bromobenzyl)-2,3,4,6-tetrahydropyrido[3,4-c][1,8]naphthyridine-5-(1H)-one], the concentration for half-maximal inhibition (IC50) in assay [1] was less than 1 µM. The compound further registered an EC50 in assay [2] of 1 to 10 µM.

`Cc1ccc(CN2CCc3c(c(=O)n(Cc4ccccc4)c4ncccc34)C2)cc1` [Compound I-21, 6-benzyl-3-(4-methylbenzyl)-2,3,4,6-tetrahydropyrido[3,4-c][1,8]naphthyridine-5-(1H)-one]: the half-inhibitory concentration (IC50) in assay [1] was less than 1 µM. Besides, the half-maximal effective concentration (EC50) in assay [2] was in the range of 1 to 10 µM.

The compound `CCc1ccc(CN2CCc3c(c(=O)n(Cc4ccccc4)c4ncccc34)C2)cc1` [Compound I-22, 6-benzyl-3-(4-ethylbenzyl)-2,3,4,6-tetrahydropyrido[3,4-c][1,8]naphthyridine-5-(1H)-one] returned an IC50 in assay [1] of less than 1 µM. Also, in assay [2], the concentration for a half-maximal effect (EC50) is 1 to 10 µM.

As for `COc1ccc(CN2CCc3c(c(=O)n(Cc4ccccc4)c4ncccc34)C2)cc1` [Compound I-23, 6-benzyl-3-(4-methoxybenzyl)-2,3,4,6-tetrahydropyrido[3,4-c][1,8]naphthyridine-5-(1H)-one], the 50% inhibitory concentration (IC50) in assay [1] is less than 1 µM. This compound also showed an EC50 in assay [2] of 1 to 10 µM.

With `Cn1ccc(CN2CCc3c(c(=O)n(Cc4ccccc4)c4ncccc34)C2)n1` [Compound I-24, 6-benzyl-3-((1-methyl-1H-pyrazol-3-yl)methyl)-2,3,4,6-tetrahydropyrido[3,4-c][1,8]naphthyridine-5-(1H)-one], in assay [1], the concentration for half-maximal inhibition (IC50) fell in the range of 1 to 10 µM. This compound also gave an EC50 in assay [2] of 10 to 100 µM.

With `Cn1nccc1CN1CCc2c(c(=O)n(Cc3ccccc3)c3ncccc23)C1` [Compound I-25, 6-benzyl-3-((1-methyl-1H-pyrazol-5-yl)methyl)-2,3,4,6-tetrahydropyrido[3,4-c][1,8]naphthyridine-5-(1H)-one], in assay [1], the half-inhibitory concentration (IC50) lay within 1 to 10 µM. This compound also returned an EC50 in assay [2] of 10 to 100 µM.

As to `Cc1cc(CN2CCc3c(c(=O)n(Cc4ccccc4)c4ncccc34)C2)n(C)n1` [Compound I-26, 6-benzyl-3-((1,3-dimethyl-1H-pyrazol-5-yl)methyl)-2,3,4,6-tetrahydropyrido[3,4-c][1,8]naphthyridine-5-(1H)-one], the 50% inhibitory concentration (IC50) in assay [1] lay in the range of 1 to 10 µM. The compound further gave a 50% effective concentration (EC50) in assay [2] of 10 to 100 µM.

In assay [1], `O=c1c2c(c3cccnc3n1Cc1ccccc1)CCN(Cc1ccccn1)C2` [Compound I-27, 6-benzyl-3-(pyridin-2-ylmethyl)-2,3,4,6-tetrahydropyrido[3,4-c][1,8]naphthyridine-5-(1H)-one] came in with a half-inhibitory concentration (IC50) of 1 to 10 µM. The same compound returned a concentration for a half-maximal effect (EC50) in assay [2] of 10 to 100 µM.

In turn, `O=c1c2c(c3cccnc3n1Cc1ccccc1)CCN(Cc1cccnc1)C2` [Compound I-28, 6-benzyl-3-(pyridin-3-ylmethyl)-2,3,4,6-tetrahydropyrido[3,4-c][1,8]naphthyridine-5-(1H)-one] yielded a 50% inhibitory concentration (IC50) in assay [1] of 1 to 10 µM. The same compound came in with an EC50 in assay [2] of 10 to 100 µM.

For `O=c1c2c(c3cccnc3n1Cc1ccccc1)CCN(Cc1ccncc1)C2` [Compound I-29, 6-benzyl-3-(pyridin-4-ylmethyl)-2,3,4,6-tetrahydropyrido[3,4-c][1,8]naphthyridine-5-(1H)-one], the IC50 in assay [1] was in the range of 1 to 10 µM. Moreover, the 50% effective concentration (EC50) in assay [2] was in the range of 10 to 100 µM.

In the case of `O=c1c2c(n3ccnc3n1Cc1ccc(C(F)(F)F)cc1)CCN(Cc1cccc(Cl)c1)C2` [Compound I-129, 7-(3-chlorobenzyl)-4-(4-trifluoromethylbenzyl)-6,7,8,9-tetrahydroimidazo[1,2-a]pyrido[3,4-e]pyrimidine-5(4H)-one], the 50% inhibitory concentration (IC50) in assay [1] is less than 1 µM.
